This is an account of results in ChEMBL document CHEMBL5543072, “Discovery of a novel lead characterized by a stilbene-extended scaffold against sepsis as soluble epoxide hydrolase inhibitors” (Eur J Med Chem, 2024).

The nature of data set [1]: Tmax in Sprague-Dawley rat at 20 mg/kg, po measured after 24 hrs. The note with it: in vivo. In kind it is ADME, organism-based.
Data set [2] deals with Mus musculus. As to the kind of experiment: Protection against LPS-induced sepsis in C57BL/6J mouse model assessed as survival rate at 5 mg/kg, iv measured after 24 hrs relative to control. In kind it is functional.
Data set [3] relates to Mus musculus. In words: Anti-inflammatory activity in LPS-induced C57BL/6J mouse model of sepsis assessed as IL-6 in serum at 5 mg/kg, ip preadministered with compound for 24 hrs followed by LPS administration and measured after 3 hrs by ELISA (reference value: 17292 pg/ml). To be noted: time 27 hrs. The data set is classed as functional. (An ELISA detects its analyte on a solid surface through an enzyme-linked reagent.)

Data set [4] is described as follows: in vivo. The note with it: C57BL/6J, mouse, other tissue, ip, 5 mg/kg.
Description: Ratio of Cmax in C57BL/6J mouse liver to blood at 5 mg/kg, ip measured after 24 hrs by LC-MS/MS analysis
Data set [5] in a line: in vivo. The note with it: C57BL/6J, mouse, other tissue, ip, 5 mg/kg. This is another data set of the same source.
Description: Ratio of AUC (0 to 24 hrs)in C57BL/6J mouse liver to blood at 5 mg/kg, ip measured after 24 hrs by LC-MS/MS analysis
The target of data set [6] is T1, Bifunctional epoxide hydrolase 2 (Homo sapiens, UniProt P34913).
T1 sequence (P34913 whole entry): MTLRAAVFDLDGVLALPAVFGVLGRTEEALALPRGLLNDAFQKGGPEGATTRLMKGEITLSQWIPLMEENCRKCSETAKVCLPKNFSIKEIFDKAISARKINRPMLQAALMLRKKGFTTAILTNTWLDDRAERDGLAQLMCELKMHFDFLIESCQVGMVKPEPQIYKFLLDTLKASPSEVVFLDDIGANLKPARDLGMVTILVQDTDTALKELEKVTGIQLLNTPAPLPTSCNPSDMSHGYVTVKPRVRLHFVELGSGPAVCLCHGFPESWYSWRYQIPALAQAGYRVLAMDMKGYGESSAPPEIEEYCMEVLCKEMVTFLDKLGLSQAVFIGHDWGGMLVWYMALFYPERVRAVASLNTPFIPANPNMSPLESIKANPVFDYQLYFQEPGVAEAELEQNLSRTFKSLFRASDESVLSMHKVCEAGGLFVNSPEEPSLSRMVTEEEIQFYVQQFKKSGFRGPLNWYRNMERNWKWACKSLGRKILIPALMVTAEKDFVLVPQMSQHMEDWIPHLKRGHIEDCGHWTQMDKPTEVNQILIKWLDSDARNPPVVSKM

Data set [7] concerns Mus musculus. As to the kind of experiment: Protection against LPS-induced sepsis in C57BL/6J mouse model assessed as survival rate at 30 mg/kg, iv measured after 48 hrs relative to control. In kind it is functional.
Data set [8] in a line: Cytotoxicity in HEK293T cells assessed as cell viability at 5 uM incubated for 48 hrs by CCK8 assay relative to control. In kind it is toxicity, cell-based, HEK-293T. The note with it: human, read-out: Activity. For orientation: Tetrazolium assays rely on reduction of a dye to a coloured formazan, in cell work by metabolically active cells.

Usually Tmax stands for the time from dosing to the highest level. What is called IC50 is the concentration that gives 50% inhibition. On to `O=C(Cc1ccccn1)Nc1cccc(/C=C/c2ccc(NC(=O)NCC3CCOCC3)cc2)c1`, for which the time to peak (Tmax) in data set [1] is 30 min. For the same molecule, the survival at 5 mg/kg in data set [2] was 60%. Besides, the Activity in data set [3] came out at 15627 pg/mL. In addition, the Kp at 24 h worked out at 7.6 in data set [4] and 175 in data set [5]. Besides, 1.52 nM corresponded to half-maximal inhibition in data set [6] (IC50). The survival at 30 mg/kg in data set [7] is 50%. Besides, the viability at 48 h, 5 µM in data set [8] amounted to 82.9%.
